The values that follow come from patent publication US8853203B2, “Diazepinone derivatives” (Novartis AG, priority 2012, dated 2014).

pIC50: −log10 of the molar value.

One assay has as its target human mGluR5a receptors (Homo sapiens (Human), UniProt P41594). Briefly: inhibition of glutamate-induced elevation of intracellular calcium in L(tk-) cells expressing human mGluR5a. Format: cell-based. Particulars: for pIC50: glutamate-induced intracellular calcium elevation, L(tk-) cells expressing human mGluR5a, read-out: mGluR5 IC50; for inhibition at 10 µM: LTK, read-out: mGluR5 % inhibition at 10 μM. From the text:
Activity of compounds of the present invention was examined by determination to what extent the glutamate-induced elevation of the intracellular calcium concentration in L(tk-) cells expressing human mGluR5a receptors (see L. P. Daggett et al., Neuropharm. Vol. 34, pages 871-886, 1995) is inhibited by utilizing methods as described e.g. by L. P. Daggett et al., Neuropharm. Vol. 34, pages 871-886 (1995) and P. J. Flor et al., J. Neurochem. Vol. 67, pages 58-63 (1996).

The next assay has as its target human mGluR1 (Homo sapiens (Human), UniProt Q13255). As to the kind of experiment: mGluR1 antagonism, L-glutamate induced intracellular calcium increase (FLIPR) in CHO cells stably expressing human mGluR1. Particulars: for pIC50: L-glutamate induced intracellular calcium, CHO cells expressing human mGluR1, FLIPR; for inhibition at 10 µM: CHO. Format: cell-based. The text has this:
Activity of compounds of the present invention with respect to mGluR1 antagonism was examined by an assay based on measurements of L-glutamate induced intracellular calcium increases using a 96 well plate-based Fluorometric Imaging Plate Reader (FLIPR), and CHO cells stably expressing human mGluR1. L-glutamate induced robust calcium responses via human mGluR1 in a concentration-dependent manner and in the low micromolar range. The table below represents IC50 values of the inhibition of the glutamate-induced elevation of the intracellular calcium concentration.

human mGluR1, sequence (Q13255 19-1194): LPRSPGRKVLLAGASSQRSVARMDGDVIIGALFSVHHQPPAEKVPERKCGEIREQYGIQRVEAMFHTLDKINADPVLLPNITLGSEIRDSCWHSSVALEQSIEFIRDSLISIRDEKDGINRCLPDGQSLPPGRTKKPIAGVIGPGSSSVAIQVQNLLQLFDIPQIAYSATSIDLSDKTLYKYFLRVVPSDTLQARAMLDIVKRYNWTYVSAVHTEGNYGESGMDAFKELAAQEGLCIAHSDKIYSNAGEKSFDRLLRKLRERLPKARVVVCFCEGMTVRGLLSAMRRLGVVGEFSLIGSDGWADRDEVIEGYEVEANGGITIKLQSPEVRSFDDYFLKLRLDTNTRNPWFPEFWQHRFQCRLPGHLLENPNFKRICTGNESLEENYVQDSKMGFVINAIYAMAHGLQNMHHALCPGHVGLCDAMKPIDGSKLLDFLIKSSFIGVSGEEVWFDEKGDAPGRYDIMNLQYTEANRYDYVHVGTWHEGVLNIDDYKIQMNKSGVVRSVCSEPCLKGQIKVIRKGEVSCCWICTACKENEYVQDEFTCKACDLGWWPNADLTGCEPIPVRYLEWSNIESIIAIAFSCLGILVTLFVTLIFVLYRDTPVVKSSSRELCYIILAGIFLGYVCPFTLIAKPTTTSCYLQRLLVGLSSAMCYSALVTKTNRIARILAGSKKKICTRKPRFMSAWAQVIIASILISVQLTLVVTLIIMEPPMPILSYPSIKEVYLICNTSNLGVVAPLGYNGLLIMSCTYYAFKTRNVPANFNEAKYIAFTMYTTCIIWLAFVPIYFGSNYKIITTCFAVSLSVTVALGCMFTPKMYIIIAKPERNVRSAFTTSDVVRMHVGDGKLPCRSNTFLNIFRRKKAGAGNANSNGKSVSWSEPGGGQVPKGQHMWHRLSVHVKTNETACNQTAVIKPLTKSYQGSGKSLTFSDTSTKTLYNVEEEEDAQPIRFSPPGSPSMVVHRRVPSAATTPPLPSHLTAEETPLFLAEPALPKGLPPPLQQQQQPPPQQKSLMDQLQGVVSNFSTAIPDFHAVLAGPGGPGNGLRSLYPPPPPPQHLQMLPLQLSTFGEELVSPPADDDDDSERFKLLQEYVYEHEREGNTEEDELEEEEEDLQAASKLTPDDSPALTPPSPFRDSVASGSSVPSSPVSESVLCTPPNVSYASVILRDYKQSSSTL
human mGluR5a receptors, sequence (P41594 other isoform, or with tags, fused parts or gaps): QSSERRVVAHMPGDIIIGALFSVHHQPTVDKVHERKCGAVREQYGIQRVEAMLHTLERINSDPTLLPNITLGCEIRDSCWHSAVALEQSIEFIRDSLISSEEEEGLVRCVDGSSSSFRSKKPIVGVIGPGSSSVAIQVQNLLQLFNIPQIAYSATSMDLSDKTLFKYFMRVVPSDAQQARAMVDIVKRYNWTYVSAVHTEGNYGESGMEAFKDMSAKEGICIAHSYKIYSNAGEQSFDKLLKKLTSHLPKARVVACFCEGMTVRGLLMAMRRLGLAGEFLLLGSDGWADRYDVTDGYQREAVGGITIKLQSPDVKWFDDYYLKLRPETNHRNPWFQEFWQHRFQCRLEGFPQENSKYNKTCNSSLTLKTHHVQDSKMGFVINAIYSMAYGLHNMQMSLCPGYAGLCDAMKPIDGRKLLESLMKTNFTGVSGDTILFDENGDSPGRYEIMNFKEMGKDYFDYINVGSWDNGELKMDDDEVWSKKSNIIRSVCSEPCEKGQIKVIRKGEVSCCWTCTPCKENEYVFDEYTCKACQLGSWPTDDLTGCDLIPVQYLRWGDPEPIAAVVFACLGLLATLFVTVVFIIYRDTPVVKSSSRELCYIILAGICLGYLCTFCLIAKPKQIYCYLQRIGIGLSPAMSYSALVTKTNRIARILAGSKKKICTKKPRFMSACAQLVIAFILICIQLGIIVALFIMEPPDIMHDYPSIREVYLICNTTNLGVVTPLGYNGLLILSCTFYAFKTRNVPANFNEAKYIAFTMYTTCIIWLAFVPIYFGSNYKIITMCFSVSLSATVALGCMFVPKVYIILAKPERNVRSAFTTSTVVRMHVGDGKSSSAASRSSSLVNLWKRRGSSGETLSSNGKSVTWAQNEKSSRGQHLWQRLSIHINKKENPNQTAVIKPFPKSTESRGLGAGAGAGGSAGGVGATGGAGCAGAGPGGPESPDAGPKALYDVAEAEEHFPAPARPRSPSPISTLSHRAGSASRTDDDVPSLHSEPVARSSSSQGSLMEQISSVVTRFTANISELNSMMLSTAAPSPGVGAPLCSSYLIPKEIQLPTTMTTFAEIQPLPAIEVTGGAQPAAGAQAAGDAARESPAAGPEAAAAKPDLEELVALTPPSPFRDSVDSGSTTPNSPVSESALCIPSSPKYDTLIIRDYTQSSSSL

What is called pIC50 is −log10 of the IC50, conventionally taken in molar units. As for `COc1cc(C2=NCC(=O)N3CCc4c(cccc4-c4cnccn4)C3=C2)ccn1` [Example 52, 2-(2-methoxypyridin-4-yl)-9-(pyrazin-2-yl)-7,8-dihydro-[1,4]diazepino[7,1-a]isoquinolin-5(4H)-one], the pIC50 on human mGluR5a receptors was 7.18; at human mGluR1 it was below 5.00.
For `COc1cc(C2=NCC(=O)N3CCc4c(cccc4-c4ccc(F)nc4)C3=C2)ccn1` [Example 53, 9-(6-fluoropyridin-3-yl)-2-(2-methoxypyridin-4-yl)-7,8-dihydro-[1,4]diazepino[7,1-a]isoquinolin-5(4H)-one] the same measures were 8.15 and below 5.00.
For `COc1cc(C2=NCC(=O)N3CCc4c(cccc4-c4ccncc4F)C3=C2)ccn1` [Example 54, 9-(3-fluoropyridin-4-yl)-2-(2-methoxypyridin-4-yl)-7,8-dihydro-[1,4]diazepino[7,1-a]isoquinolin-5(4H)-one] the same measures were 7.96 and below 5.00.
For the molecule `Cn1cnc(C2=NCC(=O)N3CCc4c(cccc4-c4ccncc4)C3=C2)c1` [Example 55, 2-(1-methyl-1H-imidazol-4-yl)-9-(pyridin-4-yl)-7,8-dihydro-[1,4]diazepino[7,1-a]isoquinolin-5(4H)-one], the pIC50 on human mGluR5a receptors is 5.31; at human mGluR1, below 5.00.
By inhibition is commonly meant how much of the control response was suppressed. As to `Cc1cc(-c2cccc3c2CCN2C(=O)CN=C(c4ccn(C)n4)C=C32)ccn1` [Example 56, 2-(1-methyl-1H-pyrazol-3-yl)-9-(2-methylpyridin-4-yl)-7,8-dihydro-[1,4]diazepino[7,1-a]isoquinolin-5(4H)-one], the inhibition at 10 µM is 24% on human mGluR5a receptors and 0% at human mGluR1.
On to `COc1cccc(C2=NCC(=O)N3CCc4c(cccc4C4CCCO4)C3=C2)c1` (centres unmarked) [Example 57, 2-(3-methoxyphenyl)-9-(tetrahydrofuran-2-yl)-7,8-dihydro-[1,4]diazepino[7,1-a]isoquinolin-5(4H)-one], for which the figures for the pIC50 at human mGluR5a receptors and at human mGluR1 were 7.85 and 5.35, respectively.
For `COc1cccc2c1CCN1C(=O)CN=C(c3cccc(O)n3)C=C21` [Example 58, 9-methoxy-2-(6-oxo-1,6-dihydropyridin-2-yl)-7,8-dihydro-[1,4]diazepino[7,1-a]isoquinolin-5(4H)-one], the inhibition at 10 µM on human mGluR5a receptors came to 26%. Besides, the pIC50 on human mGluR1 is 5.05.
For `COc1cccc(C2=NCC(=O)N3CCc4c(ccc(OC)c4OC)C3=C2)c1` [Example 59, 9,10-dimethoxy-2-(3-methoxyphenyl)-7,8-dihydro-[1,4]diazepino[7,1-a]isoquinolin-5(4H)-one] the same measures were 23% and 5.19.
Turning to `COc1cccc2c1CCN1C(=O)CN=C(c3cc[nH]c(=O)c3)C=C21` [Example 60, 9-methoxy-2-(2-oxo-1,2-dihydropyridin-4-yl)-7,8-dihydro-[1,4]diazepino[7,1-a]isoquinolin-5(4H)-one], the values for the inhibition at 10 µM at human mGluR5a receptors and at human mGluR1 were 27% and 15%, respectively.
For the molecule `COc1cccc2c1CCN1C(=O)CN=C(n3cnc(C(C)C)c3)C=C21` [Example 61, 2-(4-isopropyl-1H-imidazol-1-yl)-9-methoxy-7,8-dihydro-[1,4]diazepino[7,1-a]isoquinolin-5(4H)-one], the values for the pIC50 on human mGluR5a receptors and on human mGluR1 were 6.46 and 5.51, respectively.
The corresponding values for `Cc1cn(C2=NCC(=O)N3CCc4c(Cl)cccc4C3=C2)cn1` [Example 62, 9-chloro-2-(4-methyl-1H-imidazol-1-yl)-7,8-dihydro-[1,4]diazepino[7,1-a]isoquinolin-5(4H)-one] are 6.23 and 5.80.
For `O=C1CN=C(n2cnc(C(F)(F)F)c2)C=C2c3cccc(I)c3CCN12` [Example 63, 9-iodo-2-(4-(trifluoromethyl)-1H-imidazol-1-yl)-7,8-dihydro-[1,4]diazepino[7,1-a]isoquinolin-5(4H)-one] the same measures were 6.27 and 5.49.
The corresponding values for `N#Cc1cn(C2=NCC(=O)N3CCc4c(I)cccc4C3=C2)cn1` [Example 64, 1-(9-iodo-5-oxo-4,5,7,8-tetrahydro-[1,4]diazepino[7,1-a]isoquinolin-2-yl)-1H-imidazole-4-carbonitrile] are 5.37 and below 5.00.
Take `O=C1CN=C(n2cnc(CO)c2)C=C2c3cccc(I)c3CCN12` [Example 65, 2-(4-(hydroxymethyl)-1H-imidazol-1-yl)-9-iodo-7,8-dihydro-[1,4]diazepino[7,1-a]isoquinolin-5(4H)-one]: the results for the pIC50 at human mGluR5a receptors and on human mGluR1 were 6.68 and 5.82, respectively.
The corresponding values for `COC(=O)c1cn(C2=NCC(=O)N3CCc4c(I)cccc4C3=C2)cn1` [Example 66, methyl 1-(9-iodo-5-oxo-4,5,7,8-tetrahydro-[1,4]diazepino[7,1-a]isoquinolin-2-yl)-1H-imidazole-4-carboxylate] are 6.11 and below 5.00.
`Cc1cn(C2=NCC(=O)N3CCc4c(I)cccc4C3=C2)c(C)n1` [Example 67, 2-(2,4-dimethyl-1H-imidazol-1-yl)-9-iodo-7,8-dihydro-[1,4]diazepino[7,1-a]isoquinolin-5(4H)-one]: the negative-log IC50 (pIC50) was 6.15 on human mGluR5a receptors and 5.85 on human mGluR1.
For `CCOC(=O)c1cn(C2=NCC(=O)N3CCc4c(I)cccc4C3=C2)cn1` [Example 68, ethyl 1-(9-iodo-5-oxo-4,5,7,8-tetrahydro-[1,4]diazepino[7,1-a]isoquinolin-2-yl)-1H-imidazole-4-carboxylate], the pIC50 was 5.77 on human mGluR5a receptors and below 5.00 at human mGluR1.
With `O=C1CN=C(n2cnc(C3CCC3)c2)C=C2c3cccc(-n4cccn4)c3CCN12` [Example 69, 2-(4-cyclobutyl-1H-imidazol-1-yl)-9-(1H-pyrazol-1-yl)-7,8-dihydro-[1,4]diazepino[7,1-a]isoquinolin-5(4H)-one], the pIC50 on human mGluR5a receptors was 7.70; at human mGluR1, below 5.00.
For the molecule `O=C1CN=C(n2cnc(C3CCC3)c2)C=C2c3cccc(N4CCOCC4)c3CCN12` [Example 70, 2-(4-cyclobutyl-1H-imidazol-1-yl)-9-morpholino-7,8-dihydro-[1,4]diazepino[7,1-a]isoquinolin-5(4H)-one], the pIC50 on human mGluR5a receptors was 7.31; at human mGluR1, below 5.00.
For `COCc1cn(C2=NCC(=O)N3CCc4c(cccc4-c4nccs4)C3=C2)cn1` [Example 71, 2-(4-(methoxymethyl)-1H-imidazol-1-yl)-9-(thiazol-2-yl)-7,8-dihydro-[1,4]diazepino[7,1-a]isoquinolin-5(4H)-one] the same measures were 7.57 and 5.19.
The corresponding values for `CC(C)c1cn(C2=NCC(=O)N3CCc4c(cccc4-c4cnn(C)c4)C3=C2)cn1` [Example 72, 2-(4-isopropyl-1H-imidazol-1-yl)-9-(1-methyl-1H-pyrazol-4-yl)-7,8-dihydro-[1,4]diazepino[7,1-a]isoquinolin-5(4H)-one] are 6.56 and below 5.00.
For the molecule `CC(C)c1cn(C2=NCC(=O)N3CCc4c(cccc4-c4nccn4C)C3=C2)cn1` [Example 73, 2-(4-isopropyl-1H-imidazol-1-yl)-9-(1-methyl-1H-imidazol-2-yl)-7,8-dihydro-[1,4]diazepino[7,1-a]isoquinolin-5(4H)-one], the pIC50 on human mGluR5a receptors is 5.46; on human mGluR1 it was below 5.00.
